From the supplement of paper PMC9701192
Counter-ions that a name gives are not always drawn. ± gives the uncertainty stated by the source.

How the values were obtained:
Assay in all cases: mass response relative to vehicle control (EMD distance of treated vs reference mass distribution minus control baseline) (% of mean reference cell mass); higher = larger drug-induced change in single-cell mass distribution (stronger response)
[1] = system: PC9
Protocol: (§1)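 Cancer cell lines were treated in vitro with drugs at the listed doses (about 24 h; 0.25% DMSO vehicle). Single-cell buoyant mass was measured on suspended microchannel resonator instruments with CNN image curation, 2500 cells per condition. Mass response is the Earth Mover's Distance to vehicle-treated reference cells as % of mean reference mass.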

[2] = system: MOLM-13
Protocol: as §1

[3] = system: MM1S ATCC
Protocol: as §1

[4] = system: MDA-MB-361
Protocol: as §1

Work on `COc1cc2ncnc(Nc3ccc(F)c(Cl)c3)c2cc1NC(=O)/C=C/CN1CCCCC1` [Dacomitinib] yielded a mass response ([1]; 0.5 µM) of 14.47 ± 0.087, a mass response ([1]; 5 µM) of 25.2 ± 0.96 and a mass response ([1]; 20 µM) of 55.6 ± 1.2. For the same molecule, the mass response ([1]; 50 µM) was 62.57 ± 0.055.

For `CCc1nc(C(N)=O)c(Nc2ccc(N3CCC(N4CCN(C)CC4)CC3)c(OC)c2)nc1NC1CCOCC1` [Gilteritinib], the mass response ([2]; 0.002 µM) was -3.18 ± 4.6, the mass response ([2]; 0.02 µM) was 13.3 ± 3.4 and the mass response ([2]; 0.2 µM) was 35 ± 2.9. For the same molecule, the mass response ([2]; 2 µM) was 33.9 ± 5.4.

`COc1cccc2c1C(=O)c1c(O)c3c(c(O)c1C2=O)C[C@@](O)(C(C)=O)C[C@@H]3O[C@H]1C[C@H](N)[C@H](O)[C@H](C)O1` [Daunorubicin] showed a mass response ([2]; 0.01 µM) of 3.77 ± 1.2, a mass response ([2]; 0.1 µM) of 22.3 ± 2.7 and a mass response ([2]; 1 µM) of 31.1 ± 1.9. It also gave a mass response ([2]; 10 µM) of 45.8 ± 2.6.

For `CC1(COc2ccc3c(c2)ncn3-c2ccc3cccc(N4CCC(N)CC4)c3n2)COC1` [Crenolanib], the mass response ([2]; 0.001 µM) was 3.34 ± 2, the mass response ([2]; 0.01 µM) was 31 ± 1.7 and the mass response ([2]; 0.1 µM) was 37.3 ± 0.76. The mass response ([2]; 1 µM) was 37.99 ± 0.31.

Work on `CC(=O)O[C@@]12CO[C@@H]1C[C@H](O)[C@@]1(C)C(=O)[C@H](O)C3=C(C)[C@@H](OC(=O)[C@H](O)[C@@H](NC(=O)OC(C)(C)C)c4ccccc4)C[C@@](O)([C@@H](OC(=O)c4ccccc4)[C@H]21)C3(C)C` [Docetaxel] yielded a mass response ([1]; 0.001 µM) of 0.63 ± 3.4, a mass response ([1]; 0.0025 µM) of 5.56 ± 2.2 and a mass response ([1]; 0.005 µM) of 12.4 ± 1.8. The mass response ([1]; 0.01 µM) was 25.2 ± 4.1.

`CNC(=O)c1cc(Oc2ccc(NC(=O)Nc3ccc(Cl)c(C(F)(F)F)c3)c(F)c2)ccn1` [Regorafenib] gave a mass response ([3]; 0.04 µM) of 1.84 ± 1.4, a mass response ([3]; 0.4 µM) of 0.733 ± 1.4 and a mass response ([3]; 4 µM) of 10.9 ± 0.83. For the same molecule, the mass response ([3]; 20 µM) was 44.9 ± 2.9.

In the case of `COc1cc(N2CCC(N3CCN(C)CC3)CC2)ccc1Nc1ncc(Cl)c(Nc2ccccc2P(C)(C)=O)n1` [Brigatinib], the mass response ([1]; 0.1 µM) is reported as 1.59 ± 3.9, the mass response ([1]; 0.5 µM) is reported as 22.4 ± 1.5 and the mass response ([1]; 1 µM) is reported as 33.6 ± 2.4. The mass response ([1]; 10 µM) was 51.3 ± 5.4.

`C/C(=C\c1csc(C)n1)[C@@H]1C[C@@H]2O[C@]2(C)CCC[C@H](C)[C@H](O)[C@@H](C)C(=O)C(C)(C)[C@@H](O)CC(=O)N1` [Ixabepilone] was tested, and the mass response ([1]; 0.01 µM) was 19.5 ± 1.5, the mass response ([1]; 0.1 µM) was 37.6 ± 4.5 and the mass response ([1]; 1 µM) was 36.7 ± 4.5. It also gave a mass response ([1]; 10 µM) of 36.8 ± 5.7.

`Nc1ncn([C@H]2C[C@H](O)[C@@H](CO)O2)c(=O)n1` [Decitabine] gave a mass response ([2]; 0.25 µM) of 7.58 ± 1.9, a mass response ([2]; 2.5 µM) of 9.65 ± 3.3 and a mass response ([2]; 25 µM) of 9.39 ± 2.4. It also gave a mass response ([2]; 0.00025 M) of 8.64 ± 2.2.

Molecule `CCC1=C[C@@H]2CN(C1)Cc1c([nH]c3ccccc13)[C@@](C(=O)OC)(c1cc3c(cc1OC)N(C)[C@H]1[C@@](O)(C(=O)OC)[C@H](OC(C)=O)[C@]4(CC)C=CCN5CC[C@]31[C@@H]54)C2` [Vinorelbine Tartrate] has a mass response ([4]; 0.002 µM) of 0.302 ± 2.8, a mass response ([4]; 0.02 µM) of 13 ± 0.57 and a mass response ([4]; 0.2 µM) of 14.6 ± 1.1. The mass response ([4]; 2 µM) was 13.1 ± 1.9.

Work on `O=C(c1cc(Cc2n[nH]c(=O)c3ccccc23)ccc1F)N1CCN(C(=O)C2CC2)CC1` [Olaparib] yielded a mass response ([4]; 0.1 µM) of 1.31 ± 3.8, a mass response ([4]; 1 µM) of 1.01 ± 3.2 and a mass response ([4]; 10 µM) of 17.9 ± 9.6. The mass response ([4]; 0.0001 M) was 25 ± 4.

For `Cc1nc(NC(=O)N2CCC[C@H]2C(N)=O)sc1-c1ccnc(C(C)(C)C(F)(F)F)c1` [Alpelisib], the mass response ([4]; 0.05 µM) was 7.91 ± 1.6, the mass response ([4]; 0.5 µM) was 16.4 ± 0.24 and the mass response ([4]; 5 µM) was 39.9 ± 5.9. It also gave a mass response ([4]; 50 µM) of 62.6 ± 1.8.

With `CS(=O)(=O)CCNCc1ccc(-c2ccc3ncnc(Nc4ccc(OCc5cccc(F)c5)c(Cl)c4)c3c2)o1` [Lapatinib] the mass response ([4]; 0.1 µM) was 0.147 ± 0.5, the mass response ([4]; 1 µM) was 6.42 ± 1.7 and the mass response ([4]; 10 µM) was 19.6 ± 1.1. It also gave a mass response ([4]; 0.0001 M) of 19.5 ± 2.4.

`CC(C)C[C@H](NC(=O)[C@H](CCc1ccccc1)NC(=O)CN1CCOCC1)C(=O)N[C@@H](Cc1ccccc1)C(=O)N[C@@H](CC(C)C)C(=O)[C@@]1(C)CO1` [Carfilzomib] showed a mass response ([3]; 0.005 µM) of 10.7 ± 4.9, a mass response ([3]; 0.05 µM) of 31 ± 2.6 and a mass response ([3]; 0.1 µM) of 34.7 ± 2. The mass response ([3]; 0.5 µM) was 33.4 ± 2.5.

Work on `COc1cc2ncnc(Nc3ccc(F)c(Cl)c3)c2cc1OCCCN1CCOCC1` [Gefitinib] yielded a mass response ([1]; 0.05 µM) of 7.94 ± 10, a mass response ([1]; 0.5 µM) of 23.1 ± 11 and a mass response ([1]; 5 µM) of 35.1 ± 9.7. For the same molecule, the mass response ([1]; 50 µM) was 81.56 ± 0.43.

Molecule `CC(C)C[C@H](NC(=O)CNC(=O)c1cc(Cl)ccc1Cl)B(O)O` [Ixazomib] has a mass response ([3]; 0.00025 µM) of 2.33 ± 1.5, a mass response ([3]; 0.0025 µM) of -0.705 ± 2.2 and a mass response ([3]; 0.025 µM) of 10.7 ± 0.64. The mass response ([3]; 0.25 µM) was 9.05 ± 2.4.

Work on `Nc1nc2[nH]cc(CCc3ccc(C(=O)N[C@@H](CCC(=O)O)C(=O)O)cc3)c2c(=O)[nH]1` [Pemetrexed] yielded a mass response ([4]; 0.5 µM) of 14.4 ± 3.6, a mass response ([4]; 1 µM) of 15.2 ± 2.1 and a mass response ([4]; 5 µM) of 19 ± 2.9. For the same molecule, the mass response ([4]; 50 µM) was 21.8 ± 2.8.

`Nc1cccc2c1CN(C1CCC(=O)NC1=O)C2=O` (stereo unspecified) [Lenalidomide] gave a mass response ([3]; 0.1 µM) of 1.82 ± 5.2, a mass response ([3]; 1 µM) of 4.81 ± 3.5 and a mass response ([3]; 10 µM) of 4.13 ± 1.8. The mass response ([3]; 0.0001 M) was 14.4 ± 1.9.

Work on `Nc1cccc2c1C(=O)N(C1CCC(=O)NC1=O)C2=O` (stereo unspecified) [Pomalidomide] yielded a mass response ([3]; 0.02 µM) of 8.45 ± 2.3, a mass response ([3]; 0.2 µM) of 18.1 ± 5.3 and a mass response ([3]; 2 µM) of 17.1 ± 5.7. It also gave a mass response ([3]; 20 µM) of 16.7 ± 3.2.
